In brackets after ≈: the same amount, converted by molar mass. Like-named read-outs stand apart in the source and are kept apart here. Numbered stars: 1 amine (or outer) side, 2 acyl side, 3 side chain; on linkers, the order of the positions; unused ones are H or OH. Bridge positions count the residues as written; N and C are the ends. Side chains are listed from the residue outwards. Peptide text beside a SMILES is read from it. * marks the point of attachment. C20 diacid = O=C(O)CCCCCCCCCCCCCCCCCCC(=O)*; γGlu = O=C(O)[C@H](CCC(=O)[*:2])N[*:1]; AEEA = NCCOCCOCC(=O)O
Legend:
Sprague Dawley (SD) rats = assay: ASSAY (I) efficacy testing on appetite (food intake) using an ad libitum fed rat model; assay type: in vivo; conditions: rat, 30 nmol/kg
Method in brief: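 Individual food consumption was logged each hour up to 7 h and again at 24 h, occasionally 48 h, with Grubbs-test outliers removed. Each 200–250 g Sprague Dawley rat, free-feeding in its home cage under reversed lighting, received a single ip, po or sc dose of 0.01–3 mg/kg at lights-off, alongside a vehicle group.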

[1] = ASSAY (III) ThT fibrillation assay for physical stability; assay type: physicochemical
Method in brief: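 Physical stability scored by ThT fluorescence (444 nm excitation, 485 nm emission) tracked every 20 min during 37 °C incubation with 960 rpm shaking, ThT at 1 μM final. Values are replicate means with SD at chosen times; HPLC against pramlintide standard gives initial and post-assay soluble concentrations.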

[2] = ASSAY (IV) determination of solubility; assay type: physicochemical
Method in brief: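 UPLC read-out of polypeptide concentration after centrifugation. Samples: aqueous polypeptide stock ([…]) + 100 mM buffer 1:1, glycylglycine pH 3.0–5.0 or bistrispropane pH 6.0–8.0; 18 h, RT.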

[3] = bistrispropane buffer, pH 6.5, read-out: Solubility pH 6.5 Concentration
[4] = bistrispropane buffer, pH 7.5, read-out: Solubility pH 7.5 Concentration
[5] = bistrispropane buffer, pH 6.0, read-out: Solubility pH 6.0 Concentration
[6] = bistrispropane buffer, pH 7.0, read-out: Solubility pH 7.0 Concentration
[7] = bistrispropane buffer, pH 8.0, read-out: Solubility pH 8.0 Concentration
[8] = glycylglycine buffer, pH 3.0, read-out: Solubility pH 3.0 Concentration
[9] = glycylglycine buffer, pH 4.0, read-out: Solubility pH 4.0 Concentration
[10] = glycylglycine buffer, pH 5.0, read-out: Solubility pH 5.0 Concentration

| Compound | Food intake reduction 0-24 h 30 nmol/kg (%) (Sprague Dawley (SD) rats) | Food intake reduction 24-48 h 30 nmol/kg (%) (Sprague Dawley (SD) rats) | ThT pH 4.0 lag time (h) [1] [h] | solubility at 18 h [2, 3] [µM] | solubility at 18 h [2, 4] [µM] | solubility at 18 h [2, 5] [µM] | solubility at 18 h [2, 6] [µM] | solubility at 18 h [2, 7] [µM] | solubility at 18 h [2, 8] [µM] | solubility at 18 h [2, 9] [µM] | solubility at 18 h [2, 10] [µM] |
| --- | --- | --- | --- | --- | --- | --- | --- | --- | --- | --- | --- |
| CC[C@H](C)[C@H](NC(=O)[C@H](C)NC(=O)CNC(=O)[C@H](Cc1ccccc1)NC(=O)[C@H](CC(N)=O)NC(=O)[C@@H]1CCCN1C(=O)[C@H](CO)NC(=O)[C@H](CO)NC(=O)[C@H](Cc1c[nH]cn1)NC(=O)[C@H](CCCNC(=N)N)NC(=O)[C@H](CC(C)C)NC(=O)[C@H](Cc1ccccc1)NC(=O)[C@H](CCC(=O)O)NC(=O)[C@H](C)NC(=O)[C@H](CC(C)C)NC(=O)[C@H](CCCNC(=N)N)NC(=O)[C@H](CCC(N)=O)NC(=O)[C@@H](NC(=O)[C@H](C)NC(=O)[C@@H]1CSSC[C@H](NC(=O)[C@@H](N)CCCCNC(=O)CC[C@H](NC(=O)CC[C@H](NC(=O)CCCCCCCCCCCCCCCCCCC(=O)O)C(=O)O)C(=O)O)C(=O)N[C@@H](CC(N)=O)C(=O)N[C@@H]([C@@H](C)O)C(=O)N[C@@H](C)C(=O)N[C@@H]([C@@H](C)O)C(=O)N1)[C@@H](C)O)C(=O)N1CCC[C@H]1C(=O)N[C@@H](CO)C(=O)N[C@@H](CO)C(=O)N[C@H](C(=O)N[C@@H](CC(N)=O)C(=O)N[C@H](C(=O)NCC(=O)N[C@@H](CCCNC(=N)N)C(=O)N[C@@H](CC(N)=O)C(=O)N[C@H](C(=O)N[C@@H](Cc1ccc(O)cc1)C(N)=O)[C@@H](C)O)C(C)C)[C@@H](C)O [Example 88] (H-K([γGlu-γGlu-C20 diacid])CNTATCATQRLAEFLRHSSPNFGAIPSSTNVGRNTY-NH2; disulfide 2-7) | 31 | 15 | 45 | ≥ 200 | 113 (≈ 519 µg/mL) | ≥ 200 | 162 (≈ 744 µg/mL) | 108 (≈ 496 µg/mL) | ≥ 200 | ≥ 200 | ≥ 200 |
| CC[C@H](C)[C@H](NC(=O)[C@H](C)NC(=O)CNC(=O)[C@H](Cc1ccccc1)NC(=O)[C@H](CC(N)=O)NC(=O)[C@@H]1CCCN1C(=O)[C@H](CO)NC(=O)[C@H](CO)NC(=O)[C@H](Cc1c[nH]cn1)NC(=O)[C@H](CCCNC(=N)N)NC(=O)[C@H](CC(C)C)NC(=O)[C@H](Cc1ccccc1)NC(=O)[C@H](CCC(=O)O)NC(=O)[C@H](C)NC(=O)[C@H](CC(C)C)NC(=O)[C@H](CCCNC(=N)N)NC(=O)[C@H](CCC(N)=O)NC(=O)[C@@H](NC(=O)[C@H](C)NC(=O)[C@@H]1CSSC[C@H](NC(=O)[C@@H](N)CCCCNC(=O)CC[C@H](NC(=O)CC[C@H](NC(=O)CCCCCCCCCCCCCCCCCCC(=O)O)C(=O)O)C(=O)O)C(=O)N[C@@H](CC(N)=O)C(=O)N[C@@H]([C@@H](C)O)C(=O)N[C@@H](C)C(=O)N[C@@H]([C@@H](C)O)C(=O)N1)[C@@H](C)O)C(=O)N1CCC[C@H]1C(=O)N[C@@H](CO)C(=O)N[C@@H](CO)C(=O)N[C@H](C(=O)N[C@@H](CC(N)=O)C(=O)N[C@H](C(=O)NCC(=O)N[C@@H](CO)C(=O)N[C@@H](CCCNC(=N)N)C(=O)N[C@H](C(=O)N[C@@H](Cc1ccc(O)cc1)C(N)=O)[C@@H](C)O)C(C)C)[C@@H](C)O [Example 89] (H-K([γGlu-γGlu-C20 diacid])CNTATCATQRLAEFLRHSSPNFGAIPSSTNVGSRTY-NH2; disulfide 2-7 (inferred); N-terminus assumed) | 46 | 37 | 43 | ≥ 200 | 162 (≈ 738 µg/mL) | ≥ 200 | 172 (≈ 786 µg/mL) | 149 (≈ 681 µg/mL) | ≥ 200 | ≥ 200 | ≥ 200 |
| CC[C@H](C)[C@H](NC(=O)[C@H](C)NC(=O)CNC(=O)[C@H](Cc1ccccc1)NC(=O)[C@H](CC(N)=O)NC(=O)[C@@H]1CCCN1C(=O)[C@H](CO)NC(=O)[C@H](CO)NC(=O)[C@H](Cc1c[nH]cn1)NC(=O)[C@H](CCCNC(=N)N)NC(=O)[C@H](CC(C)C)NC(=O)[C@H](Cc1ccccc1)NC(=O)[C@H](CC(N)=O)NC(=O)[C@H](C)NC(=O)[C@H](CC(C)C)NC(=O)[C@H](CCCNC(=N)N)NC(=O)[C@H](CCC(N)=O)NC(=O)[C@@H](NC(=O)[C@H](C)NC(=O)[C@@H]1CSSC[C@H](NC(=O)[C@@H](N)CCCCNC(=O)COCCOCCNC(=O)COCCOCCNC(=O)CC[C@H](NC(=O)CCCCCCCCCCCCCCCCCCC(=O)O)C(=O)O)C(=O)N[C@@H](CC(N)=O)C(=O)N[C@@H]([C@@H](C)O)C(=O)N[C@@H](C)C(=O)N[C@@H]([C@@H](C)O)C(=O)N1)[C@@H](C)O)C(=O)N1CCC[C@H]1C(=O)N[C@@H](CO)C(=O)N[C@@H](CO)C(=O)N[C@H](C(=O)N[C@@H](CC(N)=O)C(=O)N[C@H](C(=O)NCC(=O)N[C@@H](CCCNC(=N)N)C(=O)N[C@@H](CC(N)=O)C(=O)N[C@H](C(=O)N[C@@H](Cc1ccc(O)cc1)C(N)=O)[C@@H](C)O)C(C)C)[C@@H](C)O [Example 95] (H-K([AEEA-AEEA-γGlu-C20 diacid])CNTATCATQRLANFLRHSSPNFGAIPSSTNVGRNTY-NH2; disulfide 2-7 (inferred); N-terminus assumed) | 22 | 0 | 37 | ≥ 200 | ≥ 200 | ≥ 200 | ≥ 200 | ≥ 200 | ≥ 200 | ≥ 200 | ≥ 200 |
| CC[C@H](C)[C@H](NC(=O)[C@H](C)NC(=O)CNC(=O)[C@H](Cc1ccccc1)NC(=O)[C@H](CC(N)=O)NC(=O)[C@@H]1CCCN1C(=O)[C@H](CO)NC(=O)[C@H](CO)NC(=O)[C@H](Cc1c[nH]cn1)NC(=O)[C@H](CCCNC(=N)N)NC(=O)[C@H](CC(C)C)NC(=O)[C@H](Cc1ccccc1)NC(=O)[C@H](CCC(=O)O)NC(=O)[C@H](C)NC(=O)[C@H](CC(C)C)NC(=O)[C@H](CCCNC(=N)N)NC(=O)[C@H](CCC(N)=O)NC(=O)[C@@H](NC(=O)[C@H](C)NC(=O)[C@@H]1CSSC[C@H](NC(=O)[C@@H](N)CCCCNC(=O)CC[C@H](NC(=O)CC[C@H](NC(=O)CCCCCCCCCCCCCCCCCCC(=O)O)C(=O)O)C(=O)O)C(=O)N[C@@H](CC(N)=O)C(=O)N[C@@H]([C@@H](C)O)C(=O)N[C@@H](C)C(=O)N[C@@H]([C@@H](C)O)C(=O)N1)[C@@H](C)O)C(=O)N1CCC[C@H]1C(=O)N[C@@H](CO)C(=O)N[C@@H](CO)C(=O)N[C@H](C(=O)N[C@@H](CC(N)=O)C(=O)N[C@H](C(=O)NCC(=O)N[C@@H](Cc1c[nH]cn1)C(=O)N[C@@H](CCC(=O)O)C(=O)N[C@H](C(=O)N[C@@H](Cc1ccc(O)cc1)C(N)=O)[C@@H](C)O)C(C)C)[C@@H](C)O [Example 104] (H-K([γGlu-γGlu-C20 diacid])CNTATCATQRLAEFLRHSSPNFGAIPSSTNVGHETY-NH2; disulfide 2-7; N-terminus assumed) | 31 | 28 | 45 | ≥ 200 | ≥ 200 | ≥ 200 | ≥ 200 | ≥ 200 | ≥ 200 | ≥ 200 | ≥ 200 |
| CC[C@H](C)[C@H](NC(=O)[C@H](C)NC(=O)CNC(=O)[C@H](Cc1ccccc1)NC(=O)[C@H](CC(N)=O)NC(=O)[C@@H]1CCCN1C(=O)[C@H](CO)NC(=O)[C@H](CO)NC(=O)[C@H](Cc1c[nH]cn1)NC(=O)[C@H](CCCNC(=N)N)NC(=O)[C@H](CC(C)C)NC(=O)[C@H](Cc1ccccc1)NC(=O)[C@H](CCC(=O)O)NC(=O)[C@H](C)NC(=O)[C@H](CC(C)C)NC(=O)[C@H](CCCNC(=N)N)NC(=O)[C@H](CCC(N)=O)NC(=O)[C@@H](NC(=O)[C@H](C)NC(=O)[C@@H]1CSSC[C@H](NC(=O)[C@@H](N)CCCCNC(=O)CC[C@H](NC(=O)CC[C@H](NC(=O)CCCCCCCCCCCCCCCCCCC(=O)O)C(=O)O)C(=O)O)C(=O)N[C@@H](CC(N)=O)C(=O)N[C@@H]([C@@H](C)O)C(=O)N[C@@H](C)C(=O)N[C@@H]([C@@H](C)O)C(=O)N1)[C@@H](C)O)C(=O)N1CCC[C@H]1C(=O)N[C@@H](CO)C(=O)N[C@@H](CO)C(=O)N[C@H](C(=O)N[C@@H](CC(N)=O)C(=O)N[C@H](C(=O)NCC(=O)N1CCC[C@H]1C(=O)N[C@@H](CCC(=O)O)C(=O)N[C@H](C(=O)N[C@@H](Cc1ccc(O)cc1)C(N)=O)[C@@H](C)O)C(C)C)[C@@H](C)O [Example 106] (H-K([γGlu-γGlu-C20 diacid])CNTATCATQRLAEFLRHSSPNFGAIPSSTNVGPETY-NH2; disulfide 2-7; N-terminus assumed) | 63 | 69 | 33 | ≥ 200 | ≥ 200 | ≥ 200 | ≥ 200 | ≥ 200 | ≥ 200 | ≥ 200 | ≥ 200 |
